According to the NIST ThermoML archive (doi:10.1016/j.fluid.2010.08.022):

Conditions: 101.33 kPa, Liquid crystal of unknown type; for mass density: Vibrating tube method; for speed of sound: Sing-around technique in a fixed-path interferometer

CCCCCCCC/C=C\CCCCCCCC(=O)O.NCCO [2-hydroxyethylammonium oleate]
Conditions | mass density [kg/m3] | speed of sound [m/s]
294.41 K | 938.892 | –
294.66 K | 938.731 | 1522
294.91 K | 938.572 | 1521.1
295.16 K | 938.414 | 1520.2
295.41 K | 938.256 | 1519.4
295.66 K | 938.095 | 1518.5
295.91 K | 937.936 | 1517.6
296.16 K | 937.777 | 1516.8
296.41 K | 937.618 | 1515.9
296.66 K | 937.459 | 1515
296.91 K | 937.301 | 1514.2
297.16 K | 937.14 | 1513.3
297.41 K | 936.981 | 1512.5
297.66 K | 936.822 | 1511.6
297.91 K | 936.662 | 1510.8
298.15 K | 936.505 | 1509.9
298.41 K | 936.345 | 1509
298.66 K | 936.186 | 1508.2
298.91 K | 936.026 | 1507.3
299.15 K | 935.868 | 1506.5
299.41 K | 935.709 | 1505.6
299.66 K | 935.55 | 1504.8
299.91 K | 935.39 | 1503.9
300.16 K | 935.231 | 1503
300.41 K | 935.072 | 1502.2
300.66 K | 934.914 | 1501.3
300.9 K | 934.755 | 1500.5
301.16 K | 934.596 | 1499.7
301.41 K | 934.436 | 1498.8
301.66 K | 934.277 | 1498
301.91 K | 934.118 | 1497.1
302.16 K | 933.959 | 1496.3
302.41 K | 933.802 | 1495.5
302.66 K | 933.642 | 1494.6
302.91 K | 933.483 | 1493.8
303.16 K | 933.324 | 1492.9
303.4 K | 933.167 | 1492.1
303.66 K | 933.005 | 1491.3
303.91 K | 932.846 | 1490.4
304.16 K | 932.688 | 1489.6
304.41 K | 932.529 | 1488.8
304.66 K | 932.371 | 1488
304.91 K | 932.212 | 1487.1
305.16 K | 932.053 | 1486.3
305.41 K | 931.892 | 1485.5
305.66 K | 931.734 | 1484.7
305.9 K | 931.576 | 1483.8
306.16 K | 931.416 | 1483
306.4 K | 931.258 | 1482.2
306.66 K | 931.098 | 1481.4
306.91 K | 930.939 | 1480.5
307.16 K | 930.781 | 1479.7
307.41 K | 930.622 | 1478.9
307.66 K | 930.464 | 1478.1
307.91 K | 930.304 | 1477.3
308.16 K | 930.145 | 1476.4
308.41 K | 929.987 | 1475.6
308.65 K | 929.828 | 1474.8
308.91 K | 929.668 | 1474
309.16 K | 929.509 | 1473.2
309.4 K | 929.35 | 1472.3
309.66 K | 929.189 | 1471.5
309.91 K | 929.032 | 1470.7
310.16 K | 928.874 | 1469.9
310.41 K | 928.713 | 1469
310.66 K | 928.554 | 1468.2
310.91 K | – | 1467.4
